Assay results taken from the NIST ThermoML archive (doi:10.1016/j.fluid.2017.04.014).

Conditions: Liquid, Closed cell (Static) method

COC(C)(C)C [2-methoxy-2-methylpropane]
Conditions	vapor or sublimation pressure [kPa]
283.6 K	17.79
288.6 K	22.07
293.5 K	27.43
298.4 K	33.72
303.3 K	41.1
308.2 K	49.8
313.1 K	59.9
318.1 K	71.61
323 K	85.01
327.9 K	100.34
332.9 K	117.7
337.8 K	137.39

Cc1ccccc1 [toluene]
Conditions	vapor or sublimation pressure [kPa]
278.7 K	1.26
283.6 K	1.7
288.5 K	2.26
293.4 K	2.97
298.3 K	3.89
303.2 K	5
308.1 K	6.27
313.1 K	7.99
318 K	9.95
323 K	12.26
327.9 K	15
332.8 K	18.26
337.8 K	22.04

CCO [ethanol]
Conditions	vapor or sublimation pressure [kPa]
278.6 K	2.18
283.5 K	3.11
293.4 K	5.95
298.3 K	7.96
303.2 K	10.52
308.1 K	13.84
313.1 K	17.87
318.1 K	22.98
322.9 K	29.05
327.9 K	36.73
332.8 K	46.15

CC(C)CC(C)(C)C [2,2,4-trimethylpentane]
Conditions	vapor or sublimation pressure [kPa]
283.6 K	3.05
288.4 K	3.99
293.4 K	5.18
298.3 K	6.63
298.4 K	6.62
303.3 K	8.39
308.2 K	10.53
313.1 K	12.97
318.1 K	15.96
323 K	19.54
328 K	23.81
332.8 K	28.66
